The numbers were not newly measured in article PMC12337022, “Randomized, Double-Blind, Crossover Study Comparing the Bioavailability of 4 Ashwagandha (Withania somnifera (L.) Dunal) Extracts in Healthy Adults Under Fasting Condition” (Current Therapeutic Research, Clinical and Experimental, 2025), which cites them from elsewhere.

Where two headings read alike, the source gives them in different places.

The subject of series [1] is Madin-Darby canine kidney cells.
On the set-up of series [2]: method as in Dai et al 20. The conditions noted are these: rat and human liver microsomes; ref Dai et al 20.
On the set-up of series [3]: method as in Singh et al 25. The conditions noted are these: Sprague-Dawley rats, orally at 25 mg/kg and intravenously at 2 mg/kg; ref Singh et al 25.
On the set-up of series [4]: method as in Pires et al 27. Conditions: Phase I dose-escalation, 13 participants, highest dose level tested, HPLC sensitivity 50 ng/mL; ref Pires et al 27.
The mark [5] stands for this setting: Madin-Darby canine kidney cells, in vitro.

Regarding `CC1=C(C)C(=O)O[C@@H]([C@@H](C)[C@@]2(O)CC[C@H]3[C@@H]4[C@@H]5O[C@@H]5[C@@]5(O)CC=CC(=O)[C@]5(C)[C@H]4CC[C@@]32C)C1` [withanone], in series [1] (setting [5]), the permeability entry is reported as “highly permeable”.

Regarding `CC1=C(C)C(=O)O[C@@H]([C@](C)(O)[C@H]2CC[C@H]3[C@@H]4[C@@H]5O[C@@H]5[C@@]5(O)CC=CC(=O)[C@]5(C)[C@H]4CC[C@]23C)C1` [withanolide A], in series [1] (MDCK), the permeability entry is recorded as “highly permeable”.

With 1,2-deoxy-withastramonolide, the permeability entry in series [1] (setting [5]) was “highly permeable”.

For the molecule `CC1=C(C)C(=O)O[C@@H]([C@@H](C)[C@H]2CC[C@H]3[C@@H]4CC=C5C[C@@H](O[C@@H]6O[C@H](CO[C@@H]7O[C@H](CO)[C@@H](O)[C@H](O)[C@H]7O)[C@@H](O)[C@H](O)[C@H]6O)C[C@H](O)[C@]5(C)[C@H]4CC[C@]23C)C1` [withanoside V], in series [1] (MDCK), the permeability result is “low permeability”.

Regarding `CC1=C(CO)C(=O)O[C@@H]([C@@H](C)[C@H]2CC[C@H]3[C@@H]4CC=C5C[C@@H](O[C@@H]6O[C@H](CO[C@@H]7O[C@H](CO)[C@@H](O)[C@H](O)[C@H]7O)[C@@H](O)[C@H](O)[C@H]6O)C[C@H](O)[C@]5(C)[C@H]4CC[C@]23C)C1` [withanoside IV], the permeability result in series [1] (MDCK) is “low permeability”.

As for `CC1=C(CO)C(=O)O[C@@H]([C@@H](C)[C@H]2CC[C@H]3[C@@H]4C[C@H]5O[C@]56[C@@H](O)C=CC(=O)[C@]6(C)[C@H]4CC[C@]23C)C1` [withaferin A], the half-life in series [2] was 5.6 min. Also, in series [3], the oral bioavailability entry is recorded as “about 5%”. Besides, in series [4], the detectability in plasma result is given as “not detectable”. The permeability result in series [1] (setting [5]) is given as “low permeability”.

As to `CC1=C(C)C(=O)O[C@@H]([C@@H](C)[C@H]2CC[C@H]3[C@@H]4[C@@H]5O[C@@H]5[C@@]5(O)CC=CC(=O)[C@]5(C)[C@H]4CC[C@]23C)C1` [withanolide B], in series [1] (MDCK), the permeability result is “highly permeable”.
